Results taken from US9908850B2, “Salt forms of [R—(R*,R*)]-2-(4-fluorophenyl)-β,δ-dihydroxy-5-(1-methylethyl)3-phenyl-4-[(phenylamino)carbonyl]-1H-pyrrole-1-hepatonic acid” (Pfizer Inc., priority 2004, dated 2018).

Experiment: hygroscopicity of the salt forms
Type: physicochemical
Settings: solid salt; considered to be non-hygroscopic

Molecule | hygroscopicity
[R—(R*,R*)]-2-(4-Fluorophenyl)-β,δ-dihydroxy-5-(1-methylethyl)-3-phenyl-4-[(phenylamino)carbonyl]-1H-pyrrole-1-heptanoic acid, tetrahydro-2H-1,4-oxazine [morpholine] | non-hygroscopic
[R—(R*,R*)]-2-(4-Fluorophenyl)-β,δ-dihydroxy-5-(1-methylethyl)-3-phenyl-4-[(phenylamino)carbonyl]-1H-pyrrole-1-heptanoic acid,N-ethylethanamine [diethylamine] | non-hygroscopic
CC(C)c1c(C(=O)Nc2ccccc2)c(-c2ccccc2)c(-c2ccc(F)cc2)n1CC[C@@H](O)C[C@@H](O)CC(=O)O.c1ccc(CCNCc2ccccc2)cc1 (relative stereo) [benethamine, [R—(R*,R*)]-2-(4-Fluorophenyl)-β,δ-dihydroxy-5-(1-methylethyl)-3-phenyl-4-[(phenylamino)carbonyl]-1H-pyrrole-1-heptanoic acid, N-benzyl-2-phenylethylamine] | non-hygroscopic
CC(C)c1c(C(=O)Nc2ccccc2)c(-c2ccccc2)c(-c2ccc(F)cc2)n1CC[C@@H](O)C[C@@H](O)CC(=O)O.c1ccc(CNCCNCc2ccccc2)cc1 (relative stereo) [benzathine, [R—(R*,R*)]-2-(4-Fluorophenyl)-β,δ-dihydroxy-5-(1-methylethyl)-3-phenyl-4-[(phenylamino)carbonyl]-1H-pyrrole-1-heptanoic acid,N,N^1-bis(phenylmethyl)-1,2-ethanediamine] | non-hygroscopic
[R—(R*,R*)]-2-(4-Fluorophenyl)-β,δ-dihydroxy-5-(1-methylethyl)-3-phenyl-4-[(phenylamino)carbonyl]-1H-pyrrole-1-heptanoic acid,N-(phenylmethyl)benzenemethanamine [dibenzylamine] | non-hygroscopic
[R—(R*,R*)]-2-(4-Fluorophenyl)-β,δ-dihydroxy-5-(1-methylethyl)-3-phenyl-4-[(phenylamino)carbonyl]-1H-pyrrole-1-heptanoic acid, tertiary-butylamine [erbumine] | non-hygroscopic
